Laboratory results reported in US9139587B2, “N1-pyrazolospiroketone acetyl-CoA carboxylase inhibitors” (Pfizer Inc., priority 2009, dated 2015).

Legend:
[1] = target: T1, recombinant human ACC1 (rhACC1) (Homo sapiens, UniProt Q13085, DEL44-44); assay: recombinant hACC1 Transcreener assay (direct inhibition of ACC1 activity); type: biochemical; settings: Transcreener ADP detection FP assay, 50 μM ATP, 30 μM acetyl-CoA, 120 min at 25° C.
T1 construct: recombinant baculovirus containing full length human ACC1 cDNA; made in house; host or cells: SF9 insect cells (baculovirus)
Procedure: For example direct inhibition of ACC activity, for the compound of Formula (1) was determined using preparations of recombinant human ACC1 (rhACC1) and recombinant human ACC2 (rhACC2). Representative sequences of the recombinant human ACC1 and ACC2 that can be used in the assay are provided in FIG. 1 (SEQ ID NO. 1) and FIG. 2 (SEQ. ID NO. 2), respectively. Preparation of rhACC1. Two liters of SF9 cells, infected with recombinant baculovirus containing full length human ACC1 cDNA, were suspended in ice-cold lysis buffer (25 mM Tris, pH 7.5; 150 mM NaCl; 10% glycerol; 5 mM imidazole (EMD Bioscience; Gibbstown, N.J.); 2 mM TCEP (BioVectra; Charlottetown, Canada); Benzonase nuclease (10000 U/100 g cell paste; Novagen; Madison, Wis.); EDTA-free protease inhibitor cocktail (1 tab/50 mL; Roche Diagnostics; Mannheim, Germany). Cells were lysed by 3 cycles of freeze-thaw and centrifuged at 40,000×g for 40 minutes (4° C.). Supernatant was directly loaded onto a HisTrap FF crude column (GE Healthcare; Piscataway, N.J.) and eluted with an imidazole gradient up to 0.5 M over 20 column volumes (CV). ACC1-containing fractions were pooled and diluted 1:5 with 25 mM Tris, pH 7.5, 2 mM TCEP, 10% glycerol and direct loaded onto a CaptoQ (GE Healthcare) column and eluted with an NaCl gradient up to 1 M over 20 CV's. Phosphate groups were removed from purified ACC1 by incubation with lambda phosphatase (100 U/10 μM target protein; New England Biolabs; Beverly, Mass.) for 14 hours at 4° C.; okadaic acid was added (1 μM final concentration; Roche Diagnostics) to inhibit the phosphatase. Purified ACC1 was exchanged into 25 mM Tris, pH 7.5, 2 mM TCEP, 10% glycerol, 0.5 M NaCl by 6 hour dialysis at 4° C. Aliquots were prepared and frozen at −80° C. […] The final conditions for the assay were 50 mM HEPES, pH 7.2, 10 mM MgCl2, 7.5 mM tripotassium citrate, 2 mM DTT, 0.1 mg/mL BSA, 30 μM acetyl-CoA, 50 μM ATP, and 10 mM KHCO3 Typically, a 10 μl reaction was run for 120 min at 25° C., and 10 μl of Transcreener stop and detect buffer was added and the combination incubated at room temp for an additional 1 hour. The data was acquired on a Envision Fluorescence reader (Perkinelmer) using a 620 excitation Cy5 FP general dual mirror, 620 excitation Cy5 FP filter, 688 emission (S) and a 688 (P) emission filter.

[2] = target: T2, recombinant human ACC2 (rhACC2) (Homo sapiens, UniProt O00763, V2141I); assay: recombinant hACC2 Transcreener assay (direct inhibition of ACC2 activity); type: biochemical; settings: Transcreener ADP detection FP assay, 50 μM ATP, 30 μM acetyl-CoA, 50 min at 25° C.
T2 construct: a full length Cytomax clone of ACC2 was purchased from Cambridge Bioscience Limited; made in house; host or cells: CHO cells (tetracycline-induced, pcDNA5 FRT TO-TOPO)
T2 sequence (O00763 whole entry V2141I): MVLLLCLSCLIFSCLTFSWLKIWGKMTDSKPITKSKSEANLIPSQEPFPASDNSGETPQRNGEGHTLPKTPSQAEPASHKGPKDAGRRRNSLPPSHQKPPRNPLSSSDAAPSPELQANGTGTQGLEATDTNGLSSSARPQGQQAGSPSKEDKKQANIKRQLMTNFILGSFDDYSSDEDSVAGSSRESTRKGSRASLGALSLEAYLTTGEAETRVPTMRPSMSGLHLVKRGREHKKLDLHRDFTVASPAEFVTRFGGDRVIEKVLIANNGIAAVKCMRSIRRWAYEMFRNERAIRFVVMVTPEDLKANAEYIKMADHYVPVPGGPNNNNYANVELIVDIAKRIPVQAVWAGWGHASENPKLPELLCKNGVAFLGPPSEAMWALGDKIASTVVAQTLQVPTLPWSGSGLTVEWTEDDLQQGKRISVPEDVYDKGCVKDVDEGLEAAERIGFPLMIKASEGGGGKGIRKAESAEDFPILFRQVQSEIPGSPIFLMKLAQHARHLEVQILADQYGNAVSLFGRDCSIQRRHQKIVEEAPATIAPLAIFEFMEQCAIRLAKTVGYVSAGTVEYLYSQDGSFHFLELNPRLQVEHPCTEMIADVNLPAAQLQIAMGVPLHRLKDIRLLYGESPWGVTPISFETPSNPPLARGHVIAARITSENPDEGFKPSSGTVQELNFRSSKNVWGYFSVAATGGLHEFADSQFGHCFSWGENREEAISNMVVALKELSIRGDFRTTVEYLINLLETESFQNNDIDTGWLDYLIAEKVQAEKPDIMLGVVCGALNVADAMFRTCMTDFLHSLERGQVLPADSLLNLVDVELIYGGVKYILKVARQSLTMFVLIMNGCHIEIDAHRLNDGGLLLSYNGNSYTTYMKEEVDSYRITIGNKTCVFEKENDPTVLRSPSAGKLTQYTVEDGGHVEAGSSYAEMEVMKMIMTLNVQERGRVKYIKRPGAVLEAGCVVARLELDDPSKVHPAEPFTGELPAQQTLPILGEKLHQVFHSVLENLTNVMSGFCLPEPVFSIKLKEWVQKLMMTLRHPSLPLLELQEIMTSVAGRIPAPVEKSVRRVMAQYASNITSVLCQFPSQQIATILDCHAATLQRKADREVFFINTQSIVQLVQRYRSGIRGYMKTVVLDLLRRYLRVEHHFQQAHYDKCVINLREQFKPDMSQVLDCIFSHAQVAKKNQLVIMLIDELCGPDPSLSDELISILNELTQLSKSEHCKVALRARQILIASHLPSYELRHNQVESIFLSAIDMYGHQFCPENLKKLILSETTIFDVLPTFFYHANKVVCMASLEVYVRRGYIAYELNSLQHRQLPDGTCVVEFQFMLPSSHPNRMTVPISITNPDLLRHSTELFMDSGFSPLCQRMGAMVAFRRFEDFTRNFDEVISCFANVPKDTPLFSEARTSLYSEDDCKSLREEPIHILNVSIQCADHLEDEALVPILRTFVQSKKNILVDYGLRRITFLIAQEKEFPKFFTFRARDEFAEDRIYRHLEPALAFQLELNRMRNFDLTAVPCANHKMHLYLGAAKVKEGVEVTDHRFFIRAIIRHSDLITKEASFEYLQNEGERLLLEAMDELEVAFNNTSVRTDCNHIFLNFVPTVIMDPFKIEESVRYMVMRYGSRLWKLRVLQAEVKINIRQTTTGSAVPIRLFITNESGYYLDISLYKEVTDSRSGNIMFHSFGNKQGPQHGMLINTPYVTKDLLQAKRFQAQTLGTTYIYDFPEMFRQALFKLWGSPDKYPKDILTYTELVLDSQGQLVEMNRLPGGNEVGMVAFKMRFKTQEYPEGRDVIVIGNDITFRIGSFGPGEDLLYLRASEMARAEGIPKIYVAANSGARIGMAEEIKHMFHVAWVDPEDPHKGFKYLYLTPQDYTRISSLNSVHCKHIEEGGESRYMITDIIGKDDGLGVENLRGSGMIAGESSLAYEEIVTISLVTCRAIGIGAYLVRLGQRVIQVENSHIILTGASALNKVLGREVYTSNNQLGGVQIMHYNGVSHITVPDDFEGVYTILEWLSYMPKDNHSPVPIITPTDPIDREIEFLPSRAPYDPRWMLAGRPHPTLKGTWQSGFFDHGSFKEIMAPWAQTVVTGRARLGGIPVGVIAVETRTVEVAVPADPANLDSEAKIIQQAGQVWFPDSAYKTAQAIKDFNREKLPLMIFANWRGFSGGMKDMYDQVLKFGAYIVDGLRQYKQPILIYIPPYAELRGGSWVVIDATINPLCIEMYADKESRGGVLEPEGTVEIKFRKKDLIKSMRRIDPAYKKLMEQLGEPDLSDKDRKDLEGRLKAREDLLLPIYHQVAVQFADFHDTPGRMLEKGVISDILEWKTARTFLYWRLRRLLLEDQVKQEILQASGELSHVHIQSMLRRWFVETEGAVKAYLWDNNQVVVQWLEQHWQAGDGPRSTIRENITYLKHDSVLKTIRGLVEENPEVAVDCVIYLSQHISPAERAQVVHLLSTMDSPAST
Procedure: For example direct inhibition of ACC activity, for the compound of Formula (1) was determined using preparations of recombinant human ACC1 (rhACC1) and recombinant human ACC2 (rhACC2). Representative sequences of the recombinant human ACC1 and ACC2 that can be used in the assay are provided in FIG. 1 (SEQ ID NO. 1) and FIG. 2 (SEQ. ID NO. 2), respectively.
[3] Preparation of rhACC2. Human ACC2 inhibition was measured using purified recombinant human ACC2 (hrACC2). Briefly, a full length Cytomax clone of ACC2 was purchased from Cambridge Bioscience Limited and was sequenced and subcloned into PcDNA5 FRT TO-TOPO (Invitrogen, Carlsbad, Calif.). The ACC2 was expressed in CHO cells by tetracycline induction and harvested in 5 liters of DMEM/F12 with glutamine, biotin, hygromycin and blasticidin with 1 μg/mL tetracycline (Invitrogen, Carlsbad, Calif.). The conditioned medium containing ACC2 was then applied to a Softlink Soft Release Avidin column (Promega, Madison, Wis.) and eluted with 5 mM biotin. 4 mgs of ACC2 were eluted at a concentration of 0.05 mg/mL (determined by A280) with an estimated purity of 95% ([…]). The purified ACC2 was dialyzed in 50 mM Tris, 200 mM NaCl, 4 mM DTT, 2 mM EDTA, and 5% glycerol. The pooled protein was frozen and stored at −80° C., with no loss of activity upon thawing. For measurement of ACC2 activity and assessment of ACC2 inhibition, test compounds were dissolved in DMSO and added to the rhACC2 enzyme as a 5× stock with a final DMSO concentration of 1%.
[4] Measurement of human ACC2 inhibition. hACC2 was assayed in a Costar #3676 (Costar, Cambridge, Mass.) 384-well plate using the Transcreener ADP detection FP assay kit (Bellbrook Labs, Madison, Wisconsin) using the manufacturer's recommended conditions for a 50 uM ATP reaction. The final conditions for the assay were 50 mM HEPES, pH 7.2, 5 mM MgCl2, 5 mM tripotassium citrate, 2 mM DTT, 0.1 mg/mL BSA, 30 μM acetyl-CoA, 50 μM ATP, and 8 mM KHCO3 Typically, a 10 μl reaction was run for 50 min at 25° C., and 10 μl of Transcreener stop and detect buffer was added and the combination incubated at room temp for an additional 1 hour. The data was acquired on an Envision Fluorescence reader (Perkinelmer) using a 620 excitation Cy5 FP general dual mirror, 620 excitation Cy5 FP filter, 688 emission (S) and a 688 (P) emission filter.

Row | SMILES | IC50 [1] | IC50 [2]
1 | CC(C)(C)n1ncc2c1C(=O)CC1(CCN(C(=O)c3nc4ccccc4nc3N)CC1)C2 [Example 2A-39] | 527 nM | 122 nM
2 | CC(C)n1nc(C#N)c2c1C(=O)CC1(CCN(C(=O)c3ccc4[nH]ncc4c3)CC1)C2 [Example 2A-76] | 6620 nM | 1500 nM
3 | CC(C)n1ncc2c1C(=O)C(C)C1(CCN(C(=O)c3ccc4[nH]ncc4c3)CC1)C2 (single isomer, unassigned; (-)) [Example 5A-2, (−)-1′-(1H-indazole-5-carbonyl)-1-isopropyl-6-methyl-4,6-dihydrospiro[indazole-5,4′-piperidin]-7(1H)-one] | 175 nM | 80.7 nM
4 | CC(C)(C)n1ncc2c1C(=O)CC1(CCN(C(=O)c3ccc4c(=O)[nH]ccc4c3)CC1)C2 [Example 2A-22] | 1890 nM | 334 nM
5 | Cc1cc(C(=O)N2CCC3(CC2)CC(=O)c2c(cnn2Cc2ccccc2)C3)ccc1Cl [Example 1A-4] | 2980 nM | 719 nM
6 | CC(C)n1ncc2c1C(=O)CC1(CCN(C(=O)c3ccc4[nH]c(=O)[nH]c4c3)CC1)C2 [Example 2A-33] | 53.7 nM | 14.5 nM
7 | CC(C)n1ncc2c1C(=O)CC1(CCN(C(=O)c3cnc4[nH]ncc4c3)CC1)C2 [Example 2A-1, 1-Isopropyl-1′-(1H-pyrazolo[3,4-b]pyridine-5-carbonyl)-4,6-dihydrospiro[indazole-5,4′-piperidin]-7(1H)-one] | 282 nM | 69.7 nM
8 | CC(C)(C)n1ncc2c1C(=O)CC1(CCN(C(=O)c3ccc4[nH]ncc4c3)CC1)C2 [Example 2A-28] | 47.8 nM | 17 nM
9 | CC(C)n1ncc2c1C(=O)CC1(CCN(C(=O)c3ccc4cnccc4n3)CC1)C2 [Example 2A-63] | 9330 nM | 3200 nM
10 | CC(C)(C)n1ncc2c1C(=O)CC1(CCN(C(=O)c3cn4cccc4cn3)CC1)C2 [Example 11A-45] | 1500 nM | 745 nM
11 | CC(C)n1ncc2c1C(=O)CC1(CCN(C(=O)c3cc4ccncc4[nH]3)CC1)C2 [Example 2A-64] | 229 nM | 253 nM
12 | CC(C)n1ncc2c1C(=O)C(C)C1(CCN(C(=O)c3ccc4[nH]ncc4c3)CC1)C2 (racemic) [Example 4A-1, 1′-(1H-indazole-5-carbonyl)-1-isopropyl-6-methyl-4,6-dihydrospiro[indazole-5,4′-piperidin]-7(1H)-one] | 399 nM | 125 nM
13 | CC(C)(C)n1ncc2c1C(=O)CC1(CCN(C(=O)c3cccnc3C(N)=O)CC1)C2 [Example 11A-11] | 10600 nM | 1450 nM
14 | CCCn1ncc2c1C(=O)CC1(CCN(C(=O)c3ccc(Cl)c(C)c3)CC1)C2 [Example 2A-9] | 4260 nM | 1850 nM

Continued by falling IC50 [1], values first:

Row | IC50 [1] | IC50 [2] | SMILES
15 | 4210 nM | 1280 nM | CC(=O)Nc1cccc(C(=O)N2CCC3(CC2)CC(=O)c2c(cnn2C(C)C)C3)n1 [Example 2A-62]
16 | 4080 nM | 1390 nM | CC(C)n1ncc2c1C(=O)CC1(CCN(C(=O)c3c[nH]c4c(cnn4C)c3=O)CC1)C2 [Example 11A-66]
17 | 2570 nM | 1350 nM | CC(C)(C)n1ncc2c1C(=O)CC1(CCN(C(=O)c3ccc4cnccc4n3)CC1)C2 [Example 11A-61]
18 | 1080 nM | 388 nM | CC(C)n1ncc2c1C(=O)CC1(CCN(C(=O)c3ccc4[nH]cnc4n3)CC1)C2 [Example 11A-65]
19 | 1010 nM | 359 nM | CC(C)n1ncc2c1C(=O)CC1(CCN(C(=O)c3cc4cnccc4[nH]3)CC1)C2 [Example 11A-56]
20 | 825 nM | 285 nM | CC(C)(C)n1ncc2c1C(=O)CC1(CCN(C(=O)c3ccc4[nH]cnc4n3)CC1)C2 [Example 11A-68]
21 | 338 nM | 112 nM | CC(C)n1ncc2c1C(=O)CC1(CCN(C(=O)c3cc(-c4cccnc4)[nH]n3)CC1)C2 [Example 11A-62]
22 | 297 nM | 99.7 nM | CC(C)n1ncc2c1C(=O)CC1(CCN(C(=O)c3cc4cnccc4nc3N)CC1)C2 [Example 2A-38]
23 | 267 nM | 68 nM | Cc1cc(C(=O)N2CCC3(CC2)CC(=O)c2c(cnn2C(C)C)C3)ccc1Cl [Example 1A-1, 1-isopropyl-1′-(4-chloro-3-methylbenzoyl)-4,6-dihydrospiro[indazole-5,4′-piperidin]-7(1H)-one]
24 | 152 nM | 850 nM | CC(C)(C)n1ncc2c1C(=O)CC1(CCN(C(=O)c3nn(-c4ccccc4)nc3N)CC1)C2 [Example 11A-12]
25 | 131 nM | 73.6 nM | CC(C)(C)n1ncc2c1C(=O)CC1(CCN(C(=O)c3cnc4cn[nH]c4c3)CC1)C2 [Example 11A-58]
26 | 129 nM | 48.4 nM | CC(C)(C)n1ncc2c1C(=O)CC1(CCN(C(=O)c3cccc(-n4cccn4)c3)CC1)C2 [Example 11A-17]
27 | 117 nM | 83.4 nM | CC(C)n1ncc2c1C(=O)CC1(CCN(C(=O)c3cnc4cn[nH]c4c3)CC1)C2 [Example 11A-31]
28 | 110 nM | 108 nM | CC(C)(C)n1ncc2c1C(=O)CC1(CCN(C(=O)c3cc4cnccc4[nH]3)CC1)C2 [Example 11A-51]
29 | 66.5 nM | 20.8 nM | CC(C)n1ncc2c1C(=O)CC1(CCN(C(=O)c3cc(Cl)c4[nH]c(=O)[nH]c4c3)CC1)C2 [Example 2A-57]
30 | 43.8 nM | 22.3 nM | CC(C)n1ncc2c1C(=O)CC1(CCN(C(=O)c3ccc4[nH]ncc4c3)CC1)C2 [Example 10A-1, 1′-(1H-indazole-5-carbonyl)-1-isopropyl-4,6-dihydrospiro[indazole-5,4′-piperidin]-7(1H)-one]
31 | 43.5 nM | 28.8 nM | CC(C)(C)n1ncc2c1C(=O)CC1(CCN(C(=O)c3ccc4cc[nH]c(=O)c4c3)CC1)C2 [Example 2A-31]
32 | 37.4 nM | 37.4 nM | CC(C)(C)n1ncc2c1C(=O)CC1(CCN(C(=O)c3cc4ccncc4[nH]3)CC1)C2 [Example 11A-73]
33 | 34.4 nM | 19.7 nM | CC(C)n1ncc2c1C(=O)CC1(CCN(C(=O)c3ccc4[nH]nc(C#N)c4c3)CC1)C2 [Example 11A-9]
